Where a SMILES comes first, the peptide text is derived from it. The star is where a group is joined. Cam = NC(=O)C*
What was measured:
[1] = system: Human immunodeficiency virus 1; assay: Antiviral activity against X4 tropic HIV1 NL4-3 in MT4 cells assessed as protection from virus-induced cytopathogenicity after 5 days by MTT assay; assay type: functional, organism-based; details: Human immunodeficiency virus 1, NL4-3, MT4, 120 h
[2] = Cytotoxicity against human MT4 cells after 5 days by MTT assay; assay type: cell-based
[3] = system: Human immunodeficiency virus 1; assay: Antiviral activity against R5 tropic HIV1 NL(AD8) in PM1/CCR5 cells assessed as protection from virus-induced cytopathogenicity after 5 days by MTT assay; assay type: functional, organism-based; details: Human immunodeficiency virus 1, NL(AD8), PM1/CCR5, 120 h
[4] = system: Human immunodeficiency virus 1; assay: Antiviral activity against R5 tropic HIV1 JR-CSF in PM1/CCR5 cells assessed as protection from virus-induced cytopathogenicity measuring capsid p24 level after 5 days by ELISA; assay type: functional, cell-based; details: Human immunodeficiency virus 1, JRCSF ISOLATE, PM1/CCR5, 120 h
[5] = system: Human immunodeficiency virus 1; assay: Antiviral activity against R5 tropic HIV1 NL(AD8) in PM1/CCR5 cells assessed as protection from virus-induced cytopathogenicity at 50 uM after 5 days by MTT assay; assay type: functional; details: Human immunodeficiency virus 1, NL(AD8), PM1/CCR5, 120 h

Structure (SMILES)	EC50 [1] [µM]	CC50 at 120 h [2] [µM]	EC50 [3] [µM]	EC50 [4] [µM]	inhibition at 50 µM [5] [%]
CSCC[C@H](N)C(=O)NCC(=O)N[C@@H](C)C(=O)N[C@@H](CCCNC(=N)N)C(=O)N[C@@H](C)C(=O)N[C@@H](CO)C(=O)N[C@H](C(=O)N[C@@H](CC(C)C)C(=O)N[C@@H](CO)C(=O)NCC(=O)NCC(=O)N[C@@H](CCC(=O)O)C(=O)N[C@@H](CC(C)C)C(=O)N[C@@H](CC(=O)O)C(=O)N[C@@H](CCCCN)C(=O)NCC(=O)N[C@@H](CSCC(N)=O)C(N)=O)C(C)C (H-MGARASVLSGGELDKGC(Cam)-NH2)	> 50	> 50			
CC[C@H](C)[C@H](NC(=O)[C@H](Cc1cnc[nH]1)NC(=O)[C@H](CCCCN)NC(=O)[C@H](CC(C)C)NC(=O)[C@H](CCCCN)NC(=O)[C@H](Cc1ccc(O)cc1)NC(=O)[C@H](CCC(N)=O)NC(=O)[C@H](CCC(=O)O)NC(=O)[C@H](Cc1c[nH]c2ccccc12)NC(=O)[C@H](CCCCN)NC(=O)[C@H](CC(=O)O)NC(=O)[C@H](CC(C)C)NC(=O)[C@H](CCC(=O)O)NC(=O)CNC(C)=O)C(=O)N[C@H](C(=O)NCC(=O)N[C@@H](CSCC(N)=O)C(N)=O)C(C)C (Ac-GELDKWEQYKLKHIVGC(Cam)-NH2)	> 50	> 50			
CC[C@H](C)[C@H](NC(=O)[C@H](CCCCN)NC(=O)[C@H](CC(=O)O)NC(=O)[C@H](CC(C)C)NC(C)=O)C(=O)N[C@@H](CCC(=O)O)C(=O)N[C@@H](CCC(=O)O)C(=O)N[C@@H](CCC(=O)O)C(=O)N[C@@H](CCC(N)=O)C(=O)N[C@@H](CC(N)=O)C(=O)N[C@@H](CCCCN)C(=O)N[C@@H](CO)C(=O)N[C@@H](CCCCN)C(=O)N[C@@H](CCCCN)C(=O)N[C@@H](CCCCN)C(=O)N[C@@H](C)C(=O)NCC(=O)N[C@@H](CSCC(N)=O)C(N)=O (Ac-LDKIEEEQNKSKKKAGC(Cam)-NH2)	> 50	> 50			
CC[C@H](C)[C@H](NC(=O)[C@H](CCCCN)NC(=O)[C@H](CCC(=O)O)NC(=O)[C@H](Cc1c[nH]c2ccccc12)NC(=O)[C@H](CCCCN)NC(=O)[C@H](CC(=O)O)NC(=O)[C@H](CC(C)C)NC(=O)[C@H](CCC(=O)O)NC(=O)CNC(C)=O)C(=O)N[C@@H](CCCNC(=N)N)C(=O)N[C@@H](CC(C)C)C(=O)N[C@@H](CCCNC(=N)N)C(=O)N1CCC[C@H]1C(=O)NCC(=O)NCC(=O)NCC(=O)N[C@@H](CSCC(N)=O)C(N)=O	17	> 50	1		
CC[C@H](C)[C@H](NC(=O)[C@H](CCCCN)NC(=O)[C@H](CCC(=O)O)NC(=O)[C@H](Cc1c[nH]c2ccccc12)NC(=O)[C@H](CCCCN)NC(=O)[C@H](CC(=O)O)NC(=O)[C@H](CC(C)C)NC(=O)[C@H](CCC(=O)O)NC(=O)CNC(C)=O)C(=O)N[C@@H](CCCNC(=N)N)C(=O)N[C@@H](CC(C)C)C(=O)N[C@@H](CCCNC(=N)N)C(=O)N1CCC[C@H]1C(=O)NCC(=O)NCC(=O)NCC(=O)N[C@@H](CSCC(=O)N[C@@H](CCCNC(=N)N)C(=O)N[C@@H](CCCNC(=N)N)C(=O)N[C@@H](CCCNC(=N)N)C(=O)N[C@@H](CCCNC(=N)N)C(=O)N[C@@H](CCCNC(=N)N)C(=O)N[C@@H](CCCNC(=N)N)C(=O)N[C@@H](CCCNC(=N)N)C(=O)N[C@@H](CCCNC(=N)N)C(N)=O)C(N)=O	21	32	> 31		
CC[C@H](C)[C@H](NC(=O)[C@H](CCCCN)NC(=O)[C@H](CC(=O)O)NC(=O)[C@H](CC(C)C)NC(=O)[C@H](C)NC(=O)[C@H](CCC(=O)O)NC(=O)[C@H](CCCCN)NC(=O)[C@@H](NC(=O)[C@H](CC(=O)O)NC(=O)[C@H](CCCCN)NC(=O)[C@@H](NC(=O)[C@H](CC(=O)O)NC(=O)[C@@H](NC(=O)[C@H](CCCNC(=N)N)NC(C)=O)[C@@H](C)CC)C(C)C)[C@@H](C)O)C(=O)N[C@@H](CCC(=O)O)C(=O)NCC(=O)N[C@@H](CSCC(=O)N[C@@H](CCCNC(=N)N)C(=O)N[C@@H](CCCNC(=N)N)C(=O)N[C@@H](CCCNC(=N)N)C(=O)N[C@@H](CCCNC(=N)N)C(=O)N[C@@H](CCCNC(=N)N)C(=O)N[C@@H](CCCNC(=N)N)C(=O)N[C@@H](CCCNC(=N)N)C(=O)N[C@@H](CCCNC(=N)N)C(N)=O)C(N)=O	43	> 50		27	42
CC(=O)N[C@@H](CC(=O)O)C(=O)N[C@H](C(=O)NCC(=O)N[C@@H](CC(N)=O)C(=O)N[C@@H](CC(N)=O)C(=O)N[C@@H](CO)C(=O)N[C@@H](CCC(N)=O)C(=O)N[C@H](C(=O)N[C@@H](CO)C(=O)N[C@@H](CCC(N)=O)C(=O)N[C@@H](CC(N)=O)C(=O)N[C@@H](Cc1ccc(O)cc1)C(=O)NCC(=O)N[C@@H](CSCC(=O)N[C@@H](CCCNC(=N)N)C(=O)N[C@@H](CCCNC(=N)N)C(=O)N[C@@H](CCCNC(=N)N)C(=O)N[C@@H](CCCNC(=N)N)C(=O)N[C@@H](CCCNC(=N)N)C(=O)N[C@@H](CCCNC(=N)N)C(=O)N[C@@H](CCCNC(=N)N)C(=O)N[C@@H](CCCNC(=N)N)C(N)=O)C(N)=O)C(C)C)[C@@H](C)O	20	> 50	0.43	11	
CC[C@H](C)[C@H](NC(=O)[C@H](CCC(N)=O)NC(=O)[C@H](CCCNC(=N)N)NC(=O)[C@H](CO)NC(=O)CNC(=O)[C@H](CCC(=O)O)NC(=O)[C@H](CO)NC(=O)[C@@H](NC(=O)[C@H](CCC(=O)O)NC(=O)[C@H](CC(C)C)NC(C)=O)[C@@H](C)O)C(=O)N[C@@H](CC(C)C)C(=O)NCC(=O)N[C@@H](CCC(N)=O)C(=O)N[C@@H](CC(C)C)C(=O)N[C@@H](CCC(N)=O)C(=O)NCC(=O)N[C@@H](CSCC(=O)N[C@@H](CCCNC(=N)N)C(=O)N[C@@H](CCCNC(=N)N)C(=O)N[C@@H](CCCNC(=N)N)C(=O)N[C@@H](CCCNC(=N)N)C(=O)N[C@@H](CCCNC(=N)N)C(=O)N[C@@H](CCCNC(=N)N)C(=O)N[C@@H](CCCNC(=N)N)C(=O)N[C@@H](CCCNC(=N)N)C(N)=O)C(N)=O	40	> 50		31	49
Cc1cn([C@H]2C[C@H](N=[N+]=[N-])[C@@H](CO)O2)c(=O)[nH]c1=O [ZIDOVUDINE]	0.02	> 100	0.459	0.17	
CC(=O)N[C@@H](CC(C)C)C(=O)NCC(=O)N[C@@H](CCC(N)=O)C(=O)N[C@@H](CC(C)C)C(=O)N[C@@H](CCC(N)=O)C(=O)N1CCC[C@H]1C(=O)N[C@@H](CO)C(=O)N[C@@H](CC(C)C)C(=O)N[C@@H](CCC(N)=O)C(=O)N[C@H](C(=O)NCC(=O)N[C@@H](CO)C(=O)N[C@@H](CCC(=O)O)C(=O)N[C@@H](CCC(=O)O)C(=O)N[C@@H](CC(C)C)C(=O)NCC(=O)N[C@@H](CSCC(N)=O)C(N)=O)[C@@H](C)O (Ac-LGQLQPSLQTGSEELGC(Cam)-NH2)	> 50	> 50			
CC(=O)N[C@@H](CO)C(=O)N[C@@H](CCCCN)C(=O)N[C@@H](CCCCN)C(=O)N[C@@H](CCCCN)C(=O)N[C@@H](C)C(=O)N[C@@H](CCC(N)=O)C(=O)N[C@@H](CCC(N)=O)C(=O)N[C@@H](C)C(=O)N[C@@H](C)C(=O)N[C@@H](C)C(=O)N[C@@H](CC(=O)O)C(=O)N[C@H](C(=O)NCC(=O)N[C@@H](CC(N)=O)C(=O)N[C@@H](CC(N)=O)C(=O)NCC(=O)N[C@@H](CSCC(N)=O)C(N)=O)[C@@H](C)O	> 50	> 50			
CSCC[C@H](N)C(=O)NCC(=O)N[C@@H](C)C(=O)N[C@@H](CCCNC(=N)N)C(=O)N[C@@H](C)C(=O)N[C@@H](CO)C(=O)N[C@H](C(=O)N[C@@H](CC(C)C)C(=O)N[C@@H](CO)C(=O)NCC(=O)NCC(=O)N[C@@H](CCC(=O)O)C(=O)N[C@@H](CC(C)C)C(=O)N[C@@H](CC(=O)O)C(=O)N[C@@H](CCCCN)C(=O)NCC(=O)N[C@@H](CSCC(=O)N[C@@H](CCCNC(=N)N)C(=O)N[C@@H](CCCNC(=N)N)C(=O)N[C@@H](CCCNC(=N)N)C(=O)N[C@@H](CCCNC(=N)N)C(=O)N[C@@H](CCCNC(=N)N)C(=O)N[C@@H](CCCNC(=N)N)C(=O)N[C@@H](CCCNC(=N)N)C(=O)N[C@@H](CCCNC(=N)N)C(N)=O)C(N)=O)C(C)C	30	> 50	30	40	
CC(=O)N[C@@H](CC(C)C)C(=O)N[C@@H](CCC(=O)O)C(=O)N[C@@H](CCCNC(=N)N)C(=O)N[C@@H](Cc1ccccc1)C(=O)N[C@@H](C)C(=O)N[C@H](C(=O)N[C@@H](CC(N)=O)C(=O)N1CCC[C@H]1C(=O)NCC(=O)N[C@@H](CC(C)C)C(=O)N[C@@H](CC(C)C)C(=O)N[C@@H](CCC(=O)O)C(=O)N[C@H](C(=O)N[C@@H](CO)C(=O)N[C@@H](CCC(=O)O)C(=O)NCC(=O)N[C@@H](CSCC(N)=O)C(N)=O)[C@@H](C)O)C(C)C (Ac-LERFAVNPGLLETSEGC(Cam)-NH2)	> 50	> 50			
CC[C@H](C)[C@H](NC(=O)[C@H](Cc1cnc[nH]1)NC(=O)[C@H](CCCCN)NC(=O)[C@H](CC(C)C)NC(=O)[C@H](CCCCN)NC(=O)[C@H](Cc1ccc(O)cc1)NC(=O)[C@H](CCC(N)=O)NC(=O)[C@H](CCCCN)NC(=O)[C@H](CCCCN)NC(=O)CNC(=O)CNC(=O)[C@@H]1CCCN1C(=O)[C@H](CCCNC(=N)N)NC(=O)[C@H](CC(C)C)NC(C)=O)C(=O)N[C@H](C(=O)NCC(=O)N[C@@H](CSCC(N)=O)C(N)=O)C(C)C	> 50	> 50			
COC[C@@H](c1ccc(C(F)(F)F)cc1)N1CCN(C2(C)CCN(C(=O)c3c(C)ncnc3C)CC2)C[C@@H]1C [VICRIVIROC]			0.026	0.0014	
